{"source": "patent US8003630B2", "about": "“Combinatorial therapies for the treatment of neoplasias using the opioid growth factor receptor” (The Penn State Research Foundation, priority 2004, dated 2011)", "key": {"[1]": {"system": "SCC-1 cells", "assay": "DNA synthesis, BrdU incorporation into SCC-1 cells", "type": "cell-based, human", "details": "3 days of drug treatment", "experimental": "To examine DNA synthesis, SCC-1 cells were seeded onto 22 mm diameter coverglasses placed in 6-well plates (3×10^3 cells/coverglass). […] Three hours prior to fixing cells, 30 μM BrdU was added to cultures. At appropriate times, cells were rinsed, fixed in 10% neutral buffered formalin, and stained with antibodies to BrdU (Roche, Indianapolis, Ind.). The number of positive cells was recorded using fluorescence microscopy. At least 1000 cells/treatment at each time were counted."}, "[2]": {"system": "SCC-1 cells", "assay": "Apoptosis, caspase-3 activity by flow cytometry in SCC-1 cells", "type": "cell-based, human", "details": "for percentage of caspase-3 positive cells: SCC-1, one day of treatment", "experimental": "Caspase-3-FITC positive staining was used to characterize early stages of apoptosis (29). SCC-1 cells were seeded into 6-well plates and treated with drugs beginning 24 hr later; drugs and media were replaced daily. Cells were harvested after 1, 3 and 6 days of drug treatment, and prepared according to manufacturer's recommendations for FACS analysis (FACS cell sorter with a 15 mW argon ion laser at 488 nm; Becton, Dickinson and Company, Franklin Lakes, N.J.). […] Three samples from each treatment were analyzed at each time point. The percent gated cells recorded by flow cytometry was considered caspase positive."}, "[3]": {"system": "SCC-1 cells", "assay": "Growth curves of SCC-1 cells, cell proliferation (MTT) assay, absorbency", "source_text": "Cells were counted using a standard MTT assay. In general, each data point represents the average absorbency taken from 10 wells/treatment; error bars represent the S.E.M."}, "[4]": {"system": "SCC-1 cells", "assay": "SCC-1 xenograft in nude mice, tumor growth, survival, termination day measurements (Example 9)", "details": "for latency time to develop visible tumors: controls 7 days; for Incidence of measurable tumor (day 17) / Incidence of measurable tumor (day 13): mice with tumor/N; for Incidence of measurable tumor (day 13): OGF 10 mg/kg daily and/or paclitaxel 8 mg/kg every other day i.p.; for Metastases: spleen, liver, lymph nodes", "description": "Male 4 week old nu/nu nude mice purchased from Harlan Laboratories (Indianapolis, Ind.) were housed in pathogen-free isolators in the Department of Comparative Medicine at the Penn State University College of Medicine. All procedures were approved by the IACUC committee of the Penn State University College of Medicine and conformed to the guidelines established by NIH. Mice were allowed 48 hr to acclimate prior to beginning experimentation.\nTumor cells were inoculated into nude mice by subcutaneous injection into the right scapular region. Subcutaneous injections were performed with at least 2×10^6 cells per mouse; mice were not anesthetized for this procedure.\nDosages were selected based on published reports. […] Injections of drugs were initiated 1 hr after tumor cell inoculation. […] Mice were weighed weekly to determine drug dosage.\nMice were observed daily for the presence of tumors. The latency for a visible tumor to appear, and the time until tumors were measurable (i.e., 62.5 mm^3), were recorded. Tumors were measured using calipers every day. Tumor volume was calculated using the formula w^2×1×π/6, where the length is the longest dimension, and width is the dimension perpendicular to length.\nAccording to institutional policies and IACUC guidelines, mice were terminated when tumors became ulcerated, or tumors grew to 2 cm in diameter. […] Tumors and spleens were removed and weighed, and the lymph nodes, liver, and spleen examined for metastases."}, "[5]": {"system": "CAL-27 cells", "assay": "Cell proliferation assay of CAL-27 cells", "type": "cell-based, human", "details": "48 hr; for fewer cells than in control cultures: OGF 10^−6 M and/or paclitaxel 10^−10 M", "experimental": "The UM-SCC-1 cell line (SCC-1) was derived from a well-differentiated recurrent squamous cell carcinoma in the floor of the mouth of a person (25). This cell line was obtained from The University of Michigan, Cancer Research Laboratory (Thomas E. Carey, Ph.D., Director). CAL-27 human squamous cell carcinoma cell line, derived from a poorly differentiated carcinoma of the tongue in a person ([…]), was obtained from the American Type Culture Collection (Manassas, Va.). Both cell lines were grown in Dulbecco's MEM (modified) media supplemented with 10% fetal calf serum, 1.2% sodium bicarbonate, and antibiotics (5,000 Units/ml penicillin, 5 mg/ml streptomycin, 10 mg/ml neomycin). The cell cultures were maintained in a humidified atmosphere of 7% CO2/93% air at 37° C.\nCells were seeded at equivalent amounts into either 6-well or 96-well plates (Falcon) and counted 24 hr later to determine plating efficiency.\nCell number was recorded either by using the MTS proliferation bioassay (Cell Titer 96 One Solution, Promega, Madison, Wis.) and measuring absorbency after 4 hr on a Biorad (Model 3550) plate reader at 490 nm with a 750 nm background absorbance screening, or by directly counting cells. The MTS assay utilized 10 wells/treatment. For manual counts, cells were harvested by trypsinization with 0.25% trypsin/0.53 mM EDTA, centrif uiged, and counted with a hemacytometer. Cell viability was determined by trypan blue staining. At least two aliquots per well, and 4-10 wells/treatment, were counted at each time for manual counting."}, "[6]": {"details": "48 h, paclitaxel 10^−7 M and/or OGF 10^−6 M"}, "[7]": {"details": "72 h, paclitaxel 10^−7 M and/or OGF 10^−6 M"}, "[8]": {"details": "96 h, paclitaxel 10^−7 M and/or OGF 10^−6 M"}, "[9]": {"details": "day 50 (paclitaxel group: day each mouse died), means ± SEM"}}, "note": "Marks after values point to notes of the source that are not given here.", "data": [{"compound": "CC(=O)O[C@H]1C(=O)[C@@]2(C)[C@H]([C@H](OC(=O)c3ccccc3)[C@]3(O)C[C@H](OC(=O)[C@H](O)[C@@H](NC(=O)c4ccccc4)c4ccccc4)C(C)=C1C3(C)C)[C@]1(OC(C)=O)CO[C@@H]1C[C@@H]2O", "note": "[paclitaxel]", "values": [{"measurement": "decrease in the number of BrdU positive cells from control levels", "setting": "[1]", "result": 24, "unit": "%"}, {"measurement": "fraction of SCCHN cells apoptotic", "setting": "[2]; 6 days of drug exposure", "result": "over one-half"}, {"measurement": "percentage of caspase-3 positive cells", "setting": "[2]", "result": "negligible"}, {"measurement": "decrease in cell number from control levels", "setting": "[3]; 24 h, paclitaxel 10^−7 M and/or OGF 10^−6 M", "result": 14.2, "unit": "%"}, {"measurement": "decrease in cell number from control levels", "setting": "[3]; [6]", "result": 34.4, "unit": "%"}, {"measurement": "decrease in cell number from control levels", "setting": "[3]; [7]", "result": 58, "unit": "%"}, {"measurement": "decrease in cell number from control levels", "setting": "[3]; [8]", "result": 70, "unit": "%"}, {"measurement": "decrease in cell number from control levels", "setting": "[3]; 96 h, paclitaxel 10^−8 M alone or with OGF 10^−6 M", "result": 19.3, "unit": "%"}, {"measurement": "deaths during the experimental period", "setting": "[4]; 50 days", "result": "only one mouse in this group was alive"}, {"measurement": "latency time to develop visible tumors", "setting": "[4]", "result": "comparable"}, {"measurement": "mice with measurable tumors", "setting": "[4]; day 13", "result": 66, "unit": "%"}, {"measurement": "mice with measurable tumors", "setting": "[4]; day 17", "result": 83, "unit": "%"}, {"measurement": "Body Weight, g", "setting": "[4]; [9]", "result": "22.6 ± 0.8***+++^^^ g"}, {"measurement": "Spleen Weight", "setting": "[4]; [9]", "result": "243 ± 8", "unit": "mg"}, {"measurement": "mice that had died by day 40", "setting": "[4]; male, nu/nu nude, mouse, in vivo, 8 mg/kg, 40 day", "result": 75, "unit": "%"}, {"measurement": "time within which mice began dying", "setting": "[4]; male, nu/nu nude, mouse, in vivo, 50 days", "result": "≤ 20", "unit": "days"}, {"measurement": "Latency to measurable tumor", "setting": "[4]; means ± SEM", "result": "14.8 ± 1.7", "unit": "days"}, {"measurement": "Latency to visible tumor", "setting": "[4]; means ± SEM", "result": "7.4 ± 1.4", "unit": "days"}, {"measurement": "Incidence of measurable tumor (day 17)", "setting": "[4]", "result": "10/12"}, {"measurement": "Incidence of measurable tumor (day 13)", "setting": "[4]", "result": "8/12"}, {"measurement": "body weight subnormal by", "setting": "[4]; mouse, in vivo", "result": "9-10%"}, {"measurement": "gross observations and pathological findings", "setting": "[4]; mouse, in vivo", "result": "distended abdomens, impacted bowel, and severe body weight loss"}, {"measurement": "Metastases", "setting": "[4]", "result": "none"}, {"measurement": "fewer cells than in control cultures", "setting": "[5]", "result": 35, "unit": "%"}, {"measurement": "growth depressed from control levels", "setting": "[5]; paclitaxel 10^−7 M", "result": 66, "unit": "%"}, {"measurement": "growth depressed from control levels", "setting": "[5]; paclitaxel 10^−8 M", "result": 53, "unit": "%"}, {"measurement": "growth depressed from control levels", "setting": "[5]; paclitaxel 10^−9 M", "result": 44, "unit": "%"}, {"measurement": "growth depressed from control levels", "setting": "[5]; paclitaxel 10^−10 M", "result": 22, "unit": "%"}]}, {"compound": "[Met^5]-enkephalin [OGF]", "values": [{"measurement": "decrease in the number of BrdU positive cells from control levels", "setting": "[1]", "result": 61, "unit": "%"}, {"measurement": "percentage of caspase-3 positive cells", "setting": "[2]", "result": "negligible"}, {"measurement": "decrease in cell number from control levels", "setting": "[3]; [6]", "result": 11.9, "unit": "%"}, {"measurement": "decrease in cell number from control levels", "setting": "[3]; [7]", "result": 6.7, "unit": "%"}, {"measurement": "decrease in cell number from control levels", "setting": "[3]; [8]", "result": 12.7, "unit": "%"}, {"measurement": "latency time to develop visible tumors", "setting": "[4]", "result": 11, "unit": "days"}, {"measurement": "mice with measurable tumors", "setting": "[4]; day 13", "result": 33, "unit": "%"}, {"measurement": "mice with measurable tumors", "setting": "[4]; day 17", "result": 66, "unit": "%"}, {"measurement": "tumor volume reduction from control values", "setting": "[4]; day 50", "result": 33, "unit": "%"}, {"measurement": "Tumor Volume, mm^3", "setting": "[4]; day 50, means ± SEM", "result": "2590 ± 364* mm^3"}, {"measurement": "Tumor Weight", "setting": "[4]; day 50, means ± SEM", "result": "1.7 ± 0.2", "unit": "g"}, {"measurement": "Latency to measurable tumor (days)", "setting": "[4]; means ± SEM", "result": "17.0 ± 1.5^ days"}, {"measurement": "Latency to visible tumor (days)", "setting": "[4]; means ± SEM", "result": "11.2 ± 1.5^b days"}, {"measurement": "Incidence of measurable tumor (day 17)", "setting": "[4]", "result": "8/12"}, {"measurement": "Incidence of measurable tumor (day 13)", "setting": "[4]", "result": "4/12^a"}, {"measurement": "delay of visible tumors versus controls", "setting": "[4]; p<0.02", "result": "four-day delay"}, {"measurement": "Metastases", "setting": "[4]", "result": "none"}, {"measurement": "weights of tumors reduced from control levels", "setting": "[4]; termination day (day 50)", "result": 29, "unit": "%"}, {"measurement": "fewer cells than in control cultures", "setting": "[5]", "result": 25, "unit": "%"}]}]}
